US12318403B2, “2′3′-cyclic dinucleotides and prodrugs thereof” (INSTITUTE OF ORGANIC CHEMISTRY AND BIOCHEMISTRY ASCR, V.V.I., priority 2019, dated 2025)
Where two headings read alike, the source gives them in different places. Blank lines part the entries; values can stand above or below the compound they belong to.

Legend:
[1] = biological target: human wild type STING (WT STING) (Homo sapiens, UniProt Q86WV6, H232R); experiment: 293T WT STING standard reporter assay; assay type: cell-based; conditions: standard reporter assay without digitonin, 7 hours, ISRE firefly luciferase
[2] = system: peripheral blood mononuclear cell (PBMC); experiment: Peripheral blood mononuclear cell assay; conditions: average of one to four donors
[3] = 293T WT STING EC50, 293T wtSTING-FL cells
[4] = PBMC, read-out: PBMC EC50 IFN-α, compounds 1h, washed, 15 hour incubation, interferon-alpha level in medium
[5] = PBMC, read-out: PBMC EC50 IFN-γ, compounds 1h, washed, 15 hour incubation, interferon-gamma level in medium
[6] = read-out: PBMC EC50 IFN-α, compounds 1h, washed, 15 hour incubation, interferon-alpha level in medium
[7] = read-out: PBMC EC50 TNF-α, compounds 1h, washed, 15 hour incubation, tumor necrosis factor-alpha level in medium
[8] = 293T wtSTING-FL cells, read-out: 293T WT STING EC50
[9] = read-out: PBMC EC50 IFN-γ, compounds 1h, washed, 15 hour incubation, interferon-gamma level in medium

human wild type STING (WT STING), sequence (Q86WV6 whole entry H232R): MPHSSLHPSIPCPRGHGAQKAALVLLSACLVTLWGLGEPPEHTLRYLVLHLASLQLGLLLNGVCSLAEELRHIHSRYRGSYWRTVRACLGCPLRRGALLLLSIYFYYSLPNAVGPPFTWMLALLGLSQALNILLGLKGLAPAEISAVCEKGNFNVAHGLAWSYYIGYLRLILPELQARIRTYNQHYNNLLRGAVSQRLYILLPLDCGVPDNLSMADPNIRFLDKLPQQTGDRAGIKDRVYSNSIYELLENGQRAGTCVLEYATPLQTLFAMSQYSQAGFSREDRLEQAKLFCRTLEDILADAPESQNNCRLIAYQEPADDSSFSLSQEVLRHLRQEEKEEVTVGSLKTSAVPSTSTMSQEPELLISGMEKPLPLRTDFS

Compound: CC(C)(C)C(=O)OCOc1ccc(CSP2(=O)CO[C@H]3[C@@H](F)[C@H](n4cnc5c(N)ncnc54)O[C@@H]3COP(=O)(O)O[C@@H]3[C@H](F)[C@@H](CO2)O[C@H]3n2cnc3c(=O)[nH]c(N)nc32)cc1 (single isomer, unassigned) [Compound 44a]
EC50 [1, 3]: 1900 nM

Compound: CC(C)(C)C(=O)OCOc1ccc(CSP2(=O)CO[C@H]3[C@@H](F)[C@H](n4cnc5c(N)ncnc54)O[C@@H]3COP(=O)(O)O[C@@H]3[C@H](F)[C@@H](CO2)O[C@H]3n2cnc3c(=O)[nH]c(N)nc32)cc1 (single isomer, unassigned) [Compound 44b]
EC50 [1, 3]: 500 nM

Compound: CCCCCCCC(=O)Oc1ccc(CSP2(=O)CO[C@H]3[C@@H](F)[C@H](n4cnc5c(N)ncnc54)O[C@@H]3COP(=O)(O)O[C@@H]3[C@H](F)[C@@H](CO2)O[C@H]3n2cnc3c(=O)[nH]c(N)nc32)cc1 (single isomer, unassigned) [Compound 45a]
EC50 [1, 3]: 300 nM

Compound: CCCCCCCC(=O)Oc1ccc(CSP2(=O)CO[C@H]3[C@@H](F)[C@H](n4cnc5c(N)ncnc54)O[C@@H]3COP(=O)(O)O[C@@H]3[C@H](F)[C@@H](CO2)O[C@H]3n2cnc3c(=O)[nH]c(N)nc32)cc1 (single isomer, unassigned) [Compound 45b]
EC50 [1, 3]: 150 nM

Compound: CCCCCCCCCC(=O)Oc1ccc(CSP2(=O)CO[C@H]3[C@@H](F)[C@H](n4cnc5c(N)ncnc54)O[C@@H]3COP(=O)(O)O[C@@H]3[C@H](F)[C@@H](CO2)O[C@H]3n2cnc3c(=O)[nH]c(N)nc32)cc1 (single isomer, unassigned) [Compound 46a]
EC50 [1, 3]: 60 nM

Compound: CCCCCCCCCC(=O)Oc1ccc(CSP2(=O)CO[C@H]3[C@@H](F)[C@H](n4cnc5c(N)ncnc54)O[C@@H]3COP(=O)(O)O[C@@H]3[C@H](F)[C@@H](CO2)O[C@H]3n2cnc3c(=O)[nH]c(N)nc32)cc1 (single isomer, unassigned) [Compound 46b]
EC50 ([1]; read-out: 293T WT STING EC50, 293T wtSTING-FL cells): 60 nM

Compound: CCCCCCCCCCCC(=O)Oc1ccc(CSP2(=O)CO[C@H]3[C@@H](F)[C@H](n4cnc5c(N)ncnc54)O[C@@H]3COP(=O)(O)O[C@@H]3[C@H](F)[C@@H](CO2)O[C@H]3n2cnc3c(=O)[nH]c(N)nc32)cc1 (single isomer, unassigned) [Compound 47a]
EC50 [1, 3]: 50 nM

Compound: CCCCCCCCCCCC(=O)Oc1ccc(CSP2(=O)CO[C@H]3[C@@H](F)[C@H](n4cnc5c(N)ncnc54)O[C@@H]3COP(=O)(O)O[C@@H]3[C@H](F)[C@@H](CO2)O[C@H]3n2cnc3c(=O)[nH]c(N)nc32)cc1 (single isomer, unassigned) [Compound 47b]
EC50 [1, 3]: 90 nM

Compound: CCCC(=O)Oc1ccc(CSP2(=O)CO[C@H]3[C@@H](F)[C@H](n4cnc5c(N)ncnc54)O[C@@H]3COP(=O)(O)O[C@@H]3[C@H](F)[C@@H](CO2)O[C@H]3n2cnc3c(=O)[nH]c(N)nc32)cc1 (single isomer, unassigned) [Compound 48a]
EC50 [1, 3]: 5600 nM

Compound: CCCC(=O)Oc1ccc(CSP2(=O)CO[C@H]3[C@@H](F)[C@H](n4cnc5c(N)ncnc54)O[C@@H]3COP(=O)(O)O[C@@H]3[C@H](F)[C@@H](CO2)O[C@H]3n2cnc3c(=O)[nH]c(N)nc32)cc1 (single isomer, unassigned) [Compound 48b]
EC50 [1, 3]: 3400 nM

Compound: CCCCCC(=O)Oc1ccc(C(=O)Oc2ccc(CSP3(=O)CO[C@H]4[C@@H](F)[C@H](n5cnc6c(N)ncnc65)O[C@@H]4COP(=O)(O)O[C@@H]4[C@H](F)[C@@H](CO3)O[C@H]4n3cnc4c(=O)[nH]c(N)nc43)cc2)cc1 (single isomer, unassigned) [Compound 49a]
EC50 [1, 3]: 1800 nM

Compound: CCCCCC(=O)Oc1ccc(C(=O)Oc2ccc(CSP3(=O)CO[C@H]4[C@@H](F)[C@H](n5cnc6c(N)ncnc65)O[C@@H]4COP(=O)(O)O[C@@H]4[C@H](F)[C@@H](CO3)O[C@H]4n3cnc4c(=O)[nH]c(N)nc43)cc2)cc1 (single isomer, unassigned) [Compound 49b]
EC50 [1, 3]: 4500 nM

Compound: CC(C)(C)C(=O)OCSP1(=O)CO[C@H]2[C@@H](F)[C@H](n3cnc4c(N)ncnc43)O[C@@H]2COP(=O)(SCOC(=O)C(C)(C)C)O[C@@H]2[C@H](F)[C@@H](CO1)O[C@H]2n1cnc2c(=O)[nH]c(N)nc21 (single isomer, unassigned) [Compound 55c]
EC50 [2, 4]: 10000 nM
EC50 [2, 5]: 3700 nM
EC50 ([2]; PBMC, read-out: PBMC EC50 TNF-α, compounds 1h, washed, 15 hour incubation, tumor necrosis factor-alpha level in medium): 7000 nM
EC50 [1, 3]: 650 nM

Compound: CC(C)(C)C(=O)OCSP1(=O)CO[C@H]2[C@@H](F)[C@H](n3cnc4c(N)ncnc43)O[C@@H]2COP(=O)(SCOC(=O)C(C)(C)C)O[C@@H]2[C@H](F)[C@@H](CO1)O[C@H]2n1cnc2c(=O)[nH]c(N)nc21 (single isomer, unassigned) [Compound 55d]
EC50 [1, 3]: 300 nM

Compound: CCCCCCCCCCCC(=O)OCSP1(=O)CO[C@H]2[C@@H](F)[C@H](n3cnc4c(N)ncnc43)O[C@@H]2COP(=O)(O)O[C@@H]2[C@H](F)[C@@H](CO1)O[C@H]2n1cnc2c(=O)[nH]c(N)nc21 (single isomer, unassigned) [Compound 76a]
EC50 [1, 3]: 300 nM

Compound: CCCCCCCCCCCC(=O)OCSP1(=O)CO[C@H]2[C@@H](F)[C@H](n3cnc4c(N)ncnc43)O[C@@H]2COP(=O)(O)O[C@@H]2[C@H](F)[C@@H](CO1)O[C@H]2n1cnc2c(=O)[nH]c(N)nc21 (single isomer, unassigned) [Compound 76b]
EC50 [1, 3]: 30 nM

EC50 [1, 8]: 600 nM
Compound: CC(C)(C)C(=O)OCOP1(=O)CO[C@H]2[C@@H](F)[C@H](n3cnc4c(N)ncnc43)O[C@@H]2COP(=O)(OCOC(=O)C(C)(C)C)O[C@@H]2[C@H](F)[C@@H](CO1)O[C@H]2n1cnc2c(=O)[nH]cnc21 (single isomer, unassigned) [Compound 77a]
EC50 [2, 5]: 1700 nM
EC50 [2, 6]: 2800 nM
EC50 [2, 7]: 1400 nM

EC50 [1, 8]: 300 nM
Compound: CC(C)(C)C(=O)OCOP1(=O)CO[C@H]2[C@@H](F)[C@H](n3cnc4c(N)ncnc43)O[C@@H]2COP(=O)(OCOC(=O)C(C)(C)C)O[C@@H]2[C@H](F)[C@@H](CO1)O[C@H]2n1cnc2c(=O)[nH]cnc21 (single isomer, unassigned) [Compound 77b]
EC50 [2, 6]: 4000 nM
EC50 [2, 9]: 3000 nM
EC50 [2, 7]: 3600 nM

EC50 [1, 8]: 200 nM
Compound: CC(C)(C)C(=O)OCOP1(=O)CO[C@H]2[C@@H](F)[C@H](n3cnc4c(N)ncnc43)O[C@@H]2COP(=O)(OCOC(=O)C(C)(C)C)O[C@@H]2[C@H](F)[C@@H](CO1)O[C@H]2n1cnc2c(=O)[nH]cnc21 (single isomer, unassigned) [Compound 77c]
EC50 [2, 6]: 700 nM
EC50 [2, 9]: 2300 nM
EC50 [2, 7]: 3700 nM

Compound: CCCCCCCCCCCC(=O)OCSP1(=O)CO[C@H]2[C@@H](F)[C@H](n3cnc4c(N)ncnc43)O[C@@H]2COP(=O)(SCOC(=O)CCCCCCCCCCC)O[C@@H]2[C@H](F)[C@@H](CO1)O[C@H]2n1cnc2c(=O)[nH]c(N)nc21 (single isomer, unassigned) [Compound 78c]
EC50 [2, 4]: 3400 nM
EC50 [2, 7]: 3000 nM
EC50 [1, 3]: 60 nM

Compound: CCCCCCCCCCCC(=O)OCSP1(=O)CO[C@H]2[C@@H](F)[C@H](n3cnc4c(N)ncnc43)O[C@@H]2COP(=O)(SCOC(=O)CCCCCCCCCCC)O[C@@H]2[C@H](F)[C@@H](CO1)O[C@H]2n1cnc2c(=O)[nH]c(N)nc21 (single isomer, unassigned) [Compound 78d]
EC50 [2, 6]: 3400 nM
EC50 [2, 7]: 800 nM
EC50 [1, 3]: 40 nM

EC50 [1, 8]: 3 nM
Compound: CCCCCCCCCCCC(=O)OCOP1(=O)CO[C@H]2[C@@H](F)[C@H](n3cnc4c(N)ncnc43)O[C@@H]2COP(=O)(OCOC(=O)CCCCCCCCCCC)O[C@@H]2[C@H](F)[C@@H](CO1)O[C@H]2n1cnc2c(=O)[nH]cnc21 (single isomer, unassigned) [Compound 79a]
EC50 [2, 4]: 200 nM
EC50 [2, 9]: 100 nM

EC50 [1, 8]: 140 nM
Compound: CC(C)(C)C(=O)OCOP1(=O)CO[C@H]2[C@@H](F)[C@H](n3cnc4c(N)ncnc43)O[C@@H]2COP(=O)(OCOC(=O)C(C)(C)C)O[C@@H]2[C@H](F)[C@@H](CO1)O[C@H]2n1cnc2c(N)ncnc21 (single isomer, unassigned) [Compound 81c]

Compound: CSP1(=O)CO[C@H]2[C@@H](F)[C@H](n3cnc4c(N)ncnc43)O[C@@H]2COP(=O)(SC)O[C@@H]2[C@H](F)[C@@H](CO1)O[C@H]2n1cnc2c(=O)[nH]c(N)nc21 (stereo partly drawn) [Compound 52c, (1S,6R,8R,9R,10R,16R,18R,19R)-18-(2-amino-6-oxo-6,9-dihydro-1H-purin-9-yl)-8-(6-amino-9H-purin-9-yl)-9,19-difluoro-3,13-bis(methylsulfanyl)-2,4,7,11,14,17-hexaoxa-3λ^5,13λ^5-diphosphatricyclo[14.2.1.0^6,10]nonadecane-3,13-dione]
EC50 [1, 3]: > 20000 nM

Compound: CCCCCCCC(=O)OCSP1(=O)CO[C@H]2[C@@H](F)[C@H](n3cnc4c(N)ncnc43)O[C@@H]2COP(=O)(SCOC(=O)CCCCCCC)O[C@@H]2[C@H](F)[C@@H](CO1)O[C@H]2n1cnc2c(=O)[nH]c(N)nc21 (stereo partly drawn) [Compound 69b, {[(1S,6R,8R,9R,10R,16R,18R,19R)-18-(2-amino-6-oxo-6,9-dihydro-1H-purin-9-yl)-8-(6-amino-9H-purin-9-yl)-9,19-difluoro-13-{[(octanoyloxy)methyl]sulfanyl}-3,13-dioxo-2,4,7,11,14,17-hexaoxa-3λ^5,13λ^5-diphosphatricyclo[14.2.1.0^6,10]nonadecan-3-yl]sulfanyl}methyl octanoate]
EC50 [1, 3]: 200 nM
